This data set in a line: Crystalline and amorphous solubility of the substance. It is filed as physicochemical. The settings on record: water. How it is done:
The solubility of the substance in water may be measured using a conventional technique. For example, a saturated solution of the substance is prepared by adding an excess amount of the substance to water at 25° C. and allowing the solution to equilibrate for 48 hours. Excess solids are removed by centrifugation or filtration and the concentration of the substance in water is determined by a suitable analytical technique such as HPLC. Without wishing to be bound by theory, it is thought that the formation of the initial suspension of amorphous particles following combination of the first solution with the aqueous phase promotes the subsequent formation of a uniform dispersion of nano-crystalline particles during the subsequent sonication. […] It is thought that the presence of the dispersion of amorphous particles during the sonication provides a reservoir of material in solution for the crystallisation step and thereby maintains a high and constant level of super-saturation relative to the crystalline solubility because of the higher amorphous solubility. The high and relatively constant degree of supersaturation provided by the presence of the amorphous particles provides favorable conditions for the formation of a large number of primary nuclei upon application of the ultrasound to the dispersion of amorphous particles. […]

The text below walks through data of US7780989B2, “Process for the preparation of crystalline nano-particle dispersions” (AstraZeneca AB, priority 2002, dated 2010).

Molecules are shown by their SMILES. Where two headings read alike, the source gives them in different places.

As for `CCOC(=O)C1=C(C)NC(C)=C(C(=O)OC)C1c1cccc(Cl)c1Cl` (centres unmarked) [felodipine], the solubility was 2 µM (25 °C, thermodynamic from solid, crystalline form, read-out: crystalline solubility) and around 24 µM (amorphous form, read-out: amorphous solubility).
